Experimental data as given in patent US10323018B2 (Millennium Pharmaceuticals, Inc., priority 2015, dated 2019).

Assays:
PC3 cells = test: PC3 growth inhibition (Cell-titer glo, 72 hours); type: cell-based; conditions: Homo sapiens, PC-3, 72 h, read-out: Percent Viability, PC3 cells, compound concentration 1.667 μM, 72 hours
In short: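 PC3 cells grown in RPMI1640 plated at 8×10^4 cells/ml, incubated overnight, then exposed to compound diluted in AIM serum-free medium for 72 h at 37 °C, 5% CO2. Luminescence by CellTiter-Glo relative to DMSO controls; % viability at single concentration, GI50 or LD50 from concentration-response curves.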

hNAMPT protein = hNAMPT protein (Homo sapiens (Human), UniProt P43490); test: NAMPT enzyme assay (TR-FRET/HTRF with BodiPY ligand); type: binding; conditions: for inhibition at 1 µM: NAMPT inhibition at compound concentration 1 μM, read-out: Percent Inhibition; for IC50: NAMPT inhibition, IC50 range class
Chain of hNAMPT protein (P43490 whole entry): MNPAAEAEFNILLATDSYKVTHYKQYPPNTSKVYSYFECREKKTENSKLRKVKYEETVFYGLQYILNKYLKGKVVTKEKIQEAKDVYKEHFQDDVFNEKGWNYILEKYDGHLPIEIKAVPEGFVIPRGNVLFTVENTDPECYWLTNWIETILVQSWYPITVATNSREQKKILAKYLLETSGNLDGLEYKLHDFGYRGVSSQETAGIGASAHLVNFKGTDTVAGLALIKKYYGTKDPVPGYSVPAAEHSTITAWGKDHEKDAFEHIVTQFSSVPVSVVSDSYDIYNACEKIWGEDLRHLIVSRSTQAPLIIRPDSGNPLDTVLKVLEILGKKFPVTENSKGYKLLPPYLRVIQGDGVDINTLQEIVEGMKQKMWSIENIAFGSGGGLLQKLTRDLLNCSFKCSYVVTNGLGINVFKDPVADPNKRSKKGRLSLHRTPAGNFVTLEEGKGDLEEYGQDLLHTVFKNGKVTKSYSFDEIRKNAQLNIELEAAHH
In short: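 His-tagged hNAMPT with anti-6His-Tb, incubated with compound and BodiPY ligand for 1 h at rt in the dark, in Tris-HCl pH 7.5 buffer with DTT, NaCl, MgCl2 and Tween 20. TR-FRET measured with 320 nm excitation as the 520/486 nm emission ratio. IC50 fitted relative to DMSO controls.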

| Compound | viability at 1.667 µM (PC3 cells) | inhibition at 1 µM (hNAMPT protein) | IC50 (hNAMPT protein) |
| --- | --- | --- | --- |
| CCOc1cc(-c2ccc(F)cc2OC)nc2cc(C(=O)NCCCc3cnn[nH]3)ccc12 [Compound I-121, 4-ethoxy-2-(4-fluoro-2-methoxyphenyl)-N-[3-(1H-1,2,3-triazol-5-yl)propyl]quinoline-7-carboxamide] | 2% | > 99% | < 10 nM |
| CCOc1cc(-c2ccc(=O)n(C)c2)nc2cc(C(=O)NCCCc3nnc[nH]3)ccc12 [Compound I-122, 4-ethoxy-2-(1-methyl-6-oxo-1,6-dihydropyridin-3-yl)-N-[3-(4H-1,2,4-triazol-3-yl)propyl]quinoline-7-carboxamide] | 2% | > 99% | 10 to 50 nM |
| CCOc1cc(-c2ccc(=O)n(C)c2)nc2cc(C(=O)NCCCc3cc[nH]n3)ccc12 [Compound I-123, 4-ethoxy-2-(1-methyl-6-oxo-1,6-dihydropyridin-3-yl)-N-[3-(1H-pyrazol-3-yl)propyl]quinoline-7-carboxamide] | 2% | > 99% | 10 to 50 nM |
| COCCOc1cc(-c2ccc(F)cc2)nc2cc(C(=O)NCCCc3ncn[nH]3)ccc12 [Compound I-124, N-(3-(4H-1,2,4-triazol-3-yl)propyl)-2-(4-fluorophenyl)-4-(2-methoxyethoxy)quinoline-7-carboxamide] | 2% | 92% | 50 to 100 nM |
| CCOc1cc(-c2ccc(Cl)s2)nc2cc(C(=O)NCCCc3nnc[nH]3)ccc12 [Compound I-125, 2-(5-chloro-2-thienyl)-4-ethoxy-N-[3-(4H-1,2,4-triazol-3-yl)propyl]quinoline-7-carboxamide] | 2% | 100% | < 10 nM |
| COCCOc1cc(-c2ccc(F)cc2)nc2cc(C(=O)NCCc3c[nH]nc3C)ccc12 [Compound I-126, 2-(4-fluorophenyl)-4-(2-methoxyethoxy)-N-[2-(3-methyl-1H-pyrazol-4-yl)ethyl]quinoline-7-carboxamide] | 2% | 91% | 50 to 100 nM |
| CCOc1cc(-c2cncc(C)c2)nc2cc(C(=O)NCCCc3nnc[nH]3)ccc12 [Compound I-127, 4-ethoxy-2-(5-methylpyridin-3-yl)-N-[3-(4H-1,2,4-triazol-3-yl)propyl]quinoline-7-carboxamide] | 2% | 87% | 50 to 100 nM |
| CCOc1cc(-c2ccc(F)cc2OC)nc2cc(C(=O)NCCCc3cc[nH]n3)ccc12 [Compound I-128, 4-ethoxy-2-(4-fluoro-2-methoxyphenyl)-N-[3-(1H-pyrazol-3-yl)propyl]quinoline-7-carboxamide] | 2% | 96% | 10 to 50 nM |
| CCOc1cc(-c2ccc(F)cc2OC)nc2cc(C(=O)NCCc3c[nH]nc3C)ccc12 [Compound I-129, 4-ethoxy-2-(4-fluoro-2-methoxyphenyl)-N-[2-(3-methyl-1H-pyrazol-4-yl)ethyl]quinoline-7-carboxamide] | 2% | 96% | 10 to 50 nM |
| CCOc1cc(-c2ccc(F)cc2)nc2cc(C(=O)NCc3ccn4ncnc4c3)ccc12 [Compound I-130, 4-ethoxy-2-(4-fluorophenyl)-N-([1,2,4]triazolo[1,5-a]pyridin-7-ylmethyl)quinoline-7-carboxamide] | 2% | 100% | < 10 nM |
| CCOc1cc(-c2ccc(F)cc2)nc2cc(C(=O)NCCc3nnc[nH]3)ccc12 [Compound I-131, 4-ethoxy-2-(4-fluorophenyl)-N-[2-(4H-1,2,4-triazol-3-yl)ethyl]quinoline-7-carboxamide] | 3% | 99% | 10 to 50 nM |
| CCOc1cc(-c2ccc(F)cc2)nc2cc(C(=O)NCCc3c[nH]nc3C)ccc12 [Compound I-132, 4-ethoxy-2-(4-fluorophenyl)-N-[2-(3-methyl-1H-pyrazol-4-yl)ethyl]quinoline-7-carboxamide] | 3% | > 99% | < 10 nM |
| CCOc1cc(-c2ccc(F)cc2)nc2cc(C(=O)NCCCc3n[nH]nc3C)ccc12 [Compound I-133, 4-ethoxy-2-(4-fluorophenyl)-N-[3-(5-methyl-2H-1,2,3-triazol-4-yl)propyl]quinoline-7-carboxamide] | 2% | > 99% | < 10 nM |
| CCOc1cc(-c2ccc(F)cc2)nc2cc(C(=O)NCCc3cc(N)[nH]n3)ccc12 [Compound I-134, N-[2-(5-amino-1H-pyrazol-3-yl)ethyl]-4-ethoxy-2-(4-fluorophenyl)quinoline-7-carboxamide] | 3% | 93% | 10 to 50 nM |
| CCOc1cc(C2CCOCC2)nc2cc(C(=O)NCCCc3nnc[nH]3)ccc12 [Compound I-135, 4-ethoxy-2-(tetrahydro-2H-pyran-4-yl)-N-[3-(4H-1,2,4-triazol-3-yl)propyl]quinoline-7-carboxamide] | 4% | 71% | > 100 nM |
| CCOc1cc(-c2cc(C)nc(OC)c2)nc2cc(C(=O)NCCCc3nnc[nH]3)ccc12 [Compound I-136, 4-ethoxy-2-(2-methoxy-6-methylpyridin-4-yl)-N-[3-(4H-1,2,4-triazol-3-yl)propyl]quinoline-7-carboxamide] | 2% | 98% | < 10 nM |
| CCOc1cc(-c2cccc(S(C)(=O)=O)c2)nc2cc(C(=O)NCCCc3nnc[nH]3)ccc12 [Compound I-137, 4-ethoxy-2-[3-(methylsulfonyl)phenyl]-N-[3-(4H-1,2,4-triazol-3-yl)propyl]quinoline-7-carboxamide] | 2% | 97% | 10 to 50 nM |
| CCOc1cc(-c2ccc(OC)nc2C)nc2cc(C(=O)NCCCc3nnc[nH]3)ccc12 [Compound I-138, 4-ethoxy-2-(6-methoxy-2-methylpyridin-3-yl)-N-[3-(4H-1,2,4-triazol-3-yl)propyl]quinoline-7-carboxamide] | 2% | 89% | 50 to 100 nM |
| CCOc1cc(-c2ccncc2OC)nc2cc(C(=O)NCCCc3nnc[nH]3)ccc12 [Compound I-139, 4-ethoxy-2-(3-methoxypyridin-4-yl)-N-[3-(4H-1,2,4-triazol-3-yl)propyl]quinoline-7-carboxamide] | 2% | 99% | 10 to 50 nM |
| CCOc1cc(C2=CCOCC2)nc2cc(C(=O)NCCCc3nnc[nH]3)ccc12 [Compound I-140, 2-(3,6-dihydro-2H-pyran-4-yl)-4-ethoxy-N-[3-(4H-1,2,4-triazol-3-yl)propyl]quinoline-7-carboxamide] | 2% | 91% | 50 to 100 nM |
| CCOc1cc(-c2ccc(F)cc2)nc2cc(C(=O)NCc3nc(N)n[nH]3)ccc12 [Compound I-141, N-[(3-amino-1H-1,2,4-triazol-5-yl)methyl]-4-ethoxy-2-(4-fluorophenyl)quinoline-7-carboxamide] | 9% | 82% | > 100 nM |
